Our source for the Serum Mg2+ level and Increase values is ChEMBL document CHEMBL1132096, “Structure-related enhancing activity of escins Ia, Ib, IIa and IIb on magnesium absorption in mice” (1999).

SMILES strings stand for the structures.

In assay [1] the test system is Mus musculus. The experiment in a line: Serum Magnesium ion level in 0.5 M MgSO4 loaded ([…] p.o.) mice at a concentration of 25 mg/kg administered perorally. On the set-up: dose 25 mg/kg. In kind it is functional, organism-based.
Assay [2] has as its system Mus musculus. The experiment in a line: Increased Magnesium ion level in 0.5 M MgSO4 loaded ([…] p.o.) mice at a concentration of 5 mg/kg administered perorally. In kind it is functional. The conditions noted are these: route oral.
Assay [3] has as its system Mus musculus. The experiment in a line: Serum Magnesium ion level in 0.5 M MgSO4 loaded ([…] p.o.) mice at a concentration of 5 mg/kg administered perorally. In kind it is functional, organism-based. On the set-up: dose 5 mg/kg.
Assay [4] deals with Mus musculus. Description: Serum Magnesium ion level in MgSO4 unloaded mice at a concentration of 25 mg/kg administered perorally. In kind it is functional, organism-based. On the set-up: dose 25 mg/kg.
Assay [5] relates to Mus musculus. The experiment in a line: Increased Magnesium ion level in 0.5 M MgSO4 loaded ([…] p.o.) mice at a concentration of 25 mg/kg administered perorally. In kind it is functional. The conditions noted are these: route oral.
The test system of assay [6] is Mus musculus. Description: Serum Magnesium ion level in 0.5 M MgSO4 loaded ([…] p.o.) mice at a concentration of 12.5 mg/kg administered perorally. In kind it is functional, organism-based. On the set-up: dose 12.5 mg/kg.
Assay [7] has as its system Mus musculus. Description: Increased Magnesium ion level in 0.5 M MgSO4 loaded ([…] p.o.) mice at a concentration of 12.5 mg/kg administered perorally. As to conditions: route oral. In kind it is functional.
In assay [8] the test system is Mus musculus. Description: Increased Magnesium ion level in 0.5 M MgSO4 loaded ([…] p.o.) mice pretreatment with Insulin (1U/kg, s.c) at a concentration of 12.5 mg/kg administered perorally. The conditions noted are these: route oral. In kind it is functional.
The subject of assay [9] is Mus musculus. Description: Serum Magnesium ion level in 0.5 M MgSO4 loaded ([…] p.o.) mice pretreatment with Insulin (1U/kg, s.c) at a concentration of 12.5 mg/kg administered perorally. In kind it is functional, organism-based. On the set-up: dose 12.5 mg/kg.
For assay [10], the system named is Mus musculus. The experiment in a line: Increased Magnesium ion level in 0.5 M MgSO4 loaded ([…]) mice pretreatment with Indomethacin (10 mg/kg, s.c) at a concentration of 12.5 mg/kg administered perorally. In kind it is functional. As to conditions: route oral.
In assay [11] the test system is Mus musculus. Description: Serum Magnesium ion level in 1.67 M MgSO4 loaded ([…] p.o.) mice at a concentration of 50 mg/kg administered perorally. In kind it is functional, organism-based. Details: dose 50 mg/kg.
Assay [12] relates to Mus musculus. Description: Serum Magnesium ion level in 0.5 M MgSO4 loaded ([…] p.o.) mice pretreatment with Indomethacin (10 mg/kg, s.c) at a concentration of 12.5 mg/kg administered perorally. In kind it is functional, organism-based. Details: dose 12.5 mg/kg.
The subject of assay [13] is Mus musculus. The experiment in a line: Increased Magnesium ion level in 1.67 M MgSO4 loaded ([…] p.o.) mice pretreatment with STZ (100 mg/kg, i.v.) at a concentration of 50 mg/kg administered perorally. In kind it is functional. The conditions noted are these: route oral.
For assay [14], the system named is Mus musculus. Description: Serum Magnesium ion level in 1.67 M MgSO4 loaded ([…] p.o.) mice pretreatment with STZ (100 mg/kg, i.v.) at a concentration of 50 mg/kg administered perorally. Details: dose 50 mg/kg. In kind it is functional, organism-based.
The test system of assay [15] is Mus musculus. The experiment in a line: Increased Magnesium ion level in 1.67 M MgSO4 loaded ([…] p.o.) mice at a concentration of 50 mg/kg administered perorally. In kind it is functional. As to conditions: route oral.
Assay [16] deals with Mus musculus. Description: Serum Magnesium ion level in 0.5 M MgSO4 loaded ([…] p.o.) mice at a concentration of 25 mg/kg administered perorally. On the set-up: dose 25 mg/kg. In kind it is functional, organism-based.

For the compound `C/C=C(\C)C(=O)O[C@H]1[C@H](OC(C)=O)[C@@]2(CO)C(CC1(C)C)C1=CCC3[C@@]4(C)CC[C@H](O[C@@H]5O[C@H](C(=O)O)[C@@H](O[C@@H]6O[C@H](CO)[C@@H](O)[C@H](O)[C@H]6O)[C@H](O)[C@H]5O[C@@H]5OC[C@@H](O)[C@H](O)[C@H]5O)[C@](C)(CO)C4CC[C@@]3(C)[C@]1(C)C[C@H]2O` (stereo partly specified) [AESCIN], the Serum Mg2+ level with Mus musculus [1] came to 3.6; with Mus musculus [3] it was 3; in the assay on Mus musculus [4], 3.1; in the assay on Mus musculus [6] it was 3.1. Moreover, the Increase in the assay with Mus musculus [2] was -6.3%; with Mus musculus [5], 12.5%; with Mus musculus [7], -3.1%.
As to `CC1(C)CC2C3=CCC4[C@@]5(C)CC[C@H](O[C@@H]6OC(C(=O)O)C(O[C@@H]7OC(CO)C(O)[C@@H](O)[C@@H]7O)[C@@H](O)[C@@H]6O[C@@H]6OCC(O)[C@@H](O)[C@@H]6O)[C@](C)(CO)C5CC[C@@]4(C)[C@]3(C)C[C@@H](O)[C@@]2(CO)[C@@H](O)[C@@H]1O` (stereo partly specified), the Serum Mg2+ level in the assay with Mus musculus [1] is 3.4. For the same compound, in the assay with Mus musculus [5], the Increase came out at 3%.
Regarding `C/C=C(/C)C(=O)O[C@H]1[C@H](OC(C)=O)[C@@]2(CO)C(CC1(C)C)C1=CCC3[C@@]4(C)CC[C@H](O[C@@H]5OC(C(=O)O)C(O[C@@H]6OC(CO)C(O)[C@@H](O)[C@@H]6O)[C@@H](O)[C@@H]5O[C@@H]5OC(CO)C(O)[C@@H](O)[C@@H]5O)[C@](C)(CO)C4CC[C@@]3(C)[C@]1(C)C[C@H]2O` (stereo partly specified), the Serum Mg2+ level came to 4.1 with Mus musculus [1]; 5.1 with Mus musculus [9]; 3.7 in the assay on Mus musculus [3]; 3.1 in the assay on Mus musculus [4]; 7.9 in the assay with Mus musculus [11]; 4.3 in the assay with Mus musculus [12]. Besides, the Serum Mg2+ level is 3.9 with Mus musculus [6] and 6.3 in the assay on Mus musculus [14]. Besides, the Increase is on record as 30.8% with Mus musculus [8]; 12.1% in the assay on Mus musculus [2]; 34.4% in the assay on Mus musculus [10]; 24.2% in the assay with Mus musculus [5]; 26% in the assay with Mus musculus [13]; 38.6% in the assay with Mus musculus [15]. In the assay with Mus musculus [7], the Increase came to 18.2%.
`C/C=C(\C)C(=O)O[C@H]1[C@H](OC(C)=O)[C@@]2(CO)C(CC1(C)C)C1=CCC3[C@@]4(C)CC[C@H](O[C@@H]5OC(C(=O)O)C(O[C@@H]6OC(CO)C(O)[C@@H](O)[C@@H]6O)[C@@H](O)[C@@H]5O[C@@H]5OC(CO)C(O)[C@@H](O)[C@@H]5O)[C@](C)(CO)C4CC[C@@]3(C)[C@]1(C)C[C@H]2O` (stereo partly specified): the Increase with Mus musculus [2] turned out to be 9.1%; with Mus musculus [5], 9.1%; with Mus musculus [7] it was 0%. Also, the Serum Mg2+ level in the assay on Mus musculus [3] is 3.6; in the assay with Mus musculus [4], 3.1; in the assay with Mus musculus [6], 3.3; in the assay with Mus musculus [16], 3.6.
